According to US11225469B2, “Inhibitors of phosphoglycerate dehydrogenase (PHGDH) and uses thereof” (Whitehead Institute for Biomedical Research, priority 2015, dated 2022):

What was measured:
[1] = target: GPD1L (Homo sapiens (Human), UniProt Q8N335); assay: Counter-screen against GPD1L; type: biochemical; details: Table E11
Procedure: (§1) GAPDH substrate buffer contained 210 mM Tris pH 7.4, 2.5 mM NaH2PO4 pH 7.4, 2 mM DL-Glyceraldehyde 3-phosphate, 1.75 mM MgCl2, 0.01 mM NAD+, 0.11 mM resazurin, 0.2 mg/mL BSA, and 0.01% Tween-20. GAPDH enzyme buffer contained 50 mM Tris pH 7.4, 100 mM NaCl, 0.02 mM TCEP, 0.01 mM EDTA, 0.1 mg/mL BSA, 0.42 mg/mL diaphorase, and 2.5 nM GAPDH. The GAPDH, GPD1, and GPD1L assays were run in 384-well plates using the same protocol and readout as the PHGDH assay. […] GPD1 enzyme buffer contained 50 mM Tris pH 7.4, 100 mM NaCl, 0.08 mM TCEP, 0.4 mg/mL BSA, 0.03 μM EDTA, and 0.8 nM GPD1. 70 μL of substrate buffer were mixed with 10 μL enzyme buffer. GPD1L substrate buffer contained 200 mM Tris pH 7.4, 0.05 mM sn-G3-P, 2 mM MgCl2, 0.04 mM NAD+, 0.11 mM resazurin, 0.1 mg/mL BSA, and 0.02% Tween-20. GPD1L enzyme buffer contained 50 mM Tris pH 7.4, 100 mM NaCl, 0.02 mM TCEP, 0.42 mg/mL diaphorase, 0.1 mg/mL BSA, 0.008 μM EDTA, and 16 nM GPD1L. 40 μL of substrate buffer were mixed with 40 μL of enzyme buffer.
(§2) The GAPDH and GPD1L assays were read using the same protocol as the PHGDH assay. The GPD1 assay was read using loss of NADH fluorescence (λex=340 nm and λem=460 nm).

[2] = system: serine biosynthetic pathway; assay: Labeled serine in brain after tail vein injection of 13C glucose; type: in vivo, mouse; details: 35 mg/kg
Procedure: The mice were sacrificed at the indicated times, and the fraction of labeled serine in the brain was determined by LC-MS and normalized to the fraction of labeled lactate (FIG. 4J).

[3] = system: MDA-MB-468 tumors; assay: U-13C-glucose infusion in mice bearing MDA-MB-468 tumors (target engagement); type: in vivo, mouse
Procedure: Thus, the PHGDH inhibitors described herein engage PHGDH in tumors and recapitulate the selective toxicity of PHGDH knockdown in vivo.
Chronic catheters were surgically implanted into the jugular veins of normal or tumor bearing animals 3-4 days prior to infusions. Animals were fasted for 6 hours (morning fast) and infusions were performed in free-moving, conscious animals at 1:00 pm for all studies to minimize metabolic changes associated with circadian rhythm. […] Animals were terminally anesthetized with sodium pentobarbital and all tissues were fully harvested in less than 5 minutes to preserve the metabolic state. Tumors and adjacent lung tissue were carefully dissected and rapidly frozen using a BioSqueezer (BioSpec Products) to ensure rapid quenching of metabolism throughout the tissue section. Tissues were stored at −80 C and extracted with 80:20 (v/v) methanol:water in the same manner as cells prior to LCMS analysis.

[4] = target: T1, PHGDH (Homo sapiens (Human), UniProt O43175); assay: Differential scanning fluorimetry; type: binding
Procedure: (§3) Destabilization has been previously observed in the specific binding of small molecules to their protein targets (see, e.g., Hamiaux, C. et al. “DAD2 is an α/β hydrolase likely to be involved in the perception of the plant branching hormone, strigolactone.” Curr Biol 22, 2032-2036 (2012)).
Differential scanning fluorimetry assays were carried out in 20 mM TEA pH 8, 100 mM NaCl, 1× SYPRO Orange (Sigma), 2 μM PHGDH in a volume of 10 μL. Unfolding was monitored using a LightCycler 480 II real-time PCR instrument (λex=465 nm and λem=580 nm) over a linear 20 to 85° C. gradient. Plots of the first derivative of fluorescence vs. temperature were generated in LightCycler software.

[5] = system: PHGDH-dependent cell lines (MDA-MB-468, BT-20, HCC70, HT1080, and MT-3); assay: Cytotoxicity (Cell Titer-Glo), PHGDH-dependent cell lines; type: cell-based; details: Homo sapiens
Procedure: (§4) Knockdown of PHGDH is selectively toxic towards PHGDH-dependent cell lines, and minimally toxic towards PHGDH-independent cell lines. […] Cell count was determined by quantitating the amount of ATP present with CellTitreGlo® measurements 96 hours after dosage.
(§5) Cells were seeded in white 96-well plates (Greiner) at a density of 2000 cells/well (MDA-MB-468, BT-20, MT-3) or 1000 cells/well (all other cell lines) and allowed to attach for 24 hours. Compounds were prepared in DMSO and dispensed using an HP D300 compound dispenser. Cell viability was assessed with Cell Titer-Glo (Promega) at four days following treatment and luminescence measured with a SpectraMax M5 Plate Reader (Molecular Devices). Luminescence was normalized to an untreated control in identical medium. For rescue experiments, RPMI was supplemented with 40 μM adenosine, uridine, guanosine, cytidine, deoxyadenosine, thymidine, deoxyguanosine, and deoxycytidine and the medium was replaced daily.

[6] = target: T1, PHGDH; assay: Inhibitor kinetics: competition against substrates and dilution experiments; type: biochemical; details: Lineweaver-Burk
Source text: as §3

[7] = Solubility; type: physicochemical
[8] = Pharmacokinetics after intraperitoneal administration; type: in vivo
[9] = system: PHGDH-independent cell lines (ZR-75-1, SK-MEL-2); assay: Cytotoxicity (Cell Titer-Glo), other PHGDH-independent cell lines; type: cell-based, human
Procedure: as §4, §5

[10] = target: GAPDH (Homo sapiens (Human), UniProt P04406); assay: Counter-screen against GAPDH; type: biochemical; details: Table E11
Procedure: as §1, §2

T1 sequence (O43175 whole entry): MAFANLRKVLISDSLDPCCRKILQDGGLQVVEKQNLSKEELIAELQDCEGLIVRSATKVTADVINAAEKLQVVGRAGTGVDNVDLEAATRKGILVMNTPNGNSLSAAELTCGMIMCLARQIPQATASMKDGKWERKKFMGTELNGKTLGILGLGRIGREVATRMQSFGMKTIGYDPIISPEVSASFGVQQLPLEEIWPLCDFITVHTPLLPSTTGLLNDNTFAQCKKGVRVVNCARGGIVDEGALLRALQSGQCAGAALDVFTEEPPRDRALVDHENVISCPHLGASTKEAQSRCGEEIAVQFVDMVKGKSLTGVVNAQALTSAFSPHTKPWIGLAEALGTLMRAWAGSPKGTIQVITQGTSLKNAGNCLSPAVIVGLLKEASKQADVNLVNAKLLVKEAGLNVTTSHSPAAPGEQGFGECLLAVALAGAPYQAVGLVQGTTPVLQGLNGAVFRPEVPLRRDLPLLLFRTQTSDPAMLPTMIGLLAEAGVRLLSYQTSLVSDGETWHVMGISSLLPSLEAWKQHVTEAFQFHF
Chain of GPD1L (Q8N335 whole entry): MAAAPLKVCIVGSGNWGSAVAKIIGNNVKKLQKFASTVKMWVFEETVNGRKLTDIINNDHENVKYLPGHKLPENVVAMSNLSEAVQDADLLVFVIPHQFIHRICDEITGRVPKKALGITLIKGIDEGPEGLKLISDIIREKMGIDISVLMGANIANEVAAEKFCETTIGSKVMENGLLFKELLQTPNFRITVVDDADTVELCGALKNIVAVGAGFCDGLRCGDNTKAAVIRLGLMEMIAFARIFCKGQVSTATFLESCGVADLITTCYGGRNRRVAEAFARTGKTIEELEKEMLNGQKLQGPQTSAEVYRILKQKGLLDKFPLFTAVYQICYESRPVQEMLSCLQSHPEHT
Chain of GAPDH (P04406 whole entry): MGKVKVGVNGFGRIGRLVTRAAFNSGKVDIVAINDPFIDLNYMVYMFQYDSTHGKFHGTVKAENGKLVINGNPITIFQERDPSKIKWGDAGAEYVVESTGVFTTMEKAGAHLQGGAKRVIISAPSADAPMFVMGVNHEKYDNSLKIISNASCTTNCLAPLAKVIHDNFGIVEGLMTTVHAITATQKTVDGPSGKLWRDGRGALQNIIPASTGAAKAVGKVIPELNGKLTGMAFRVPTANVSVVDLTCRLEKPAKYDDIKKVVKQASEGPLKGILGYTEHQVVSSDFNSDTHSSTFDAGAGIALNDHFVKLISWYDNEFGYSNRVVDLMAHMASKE

Cc1cc(C)nc(NC(=S)N2CCN(Cc3ccc(C(F)(F)F)cc3)CC2)c1 [Compound 267, N-(4,6-dimethylpyridin-2-yl)-4-(4-(trifluoromethyl)benzyl)piperazine-1-carbothioamide]
IC50 [1]: ≥ 100 µM | incorporation of carbon-13 from glucose into serine in the brain [2]: block incorporation | production of glucose-derived serine in tumors [3]: decreased production | Tm of PHGDH [4]: decreased | EC50 [5]: 8 to 16 µM | type of inhibition with respect to 3-PG [6]: mixed-mode inhibition | type of inhibition with respect to NAD+ [6]: non-competitive inhibition | aqueous solubility [7]: reasonable aqueous solubility | partitioning into the liver and brain [8]: significant partitioning | toxicity [9]: no toxicity | IC50 [10]: ≥ 100 µM
